Assays:
Experiment in all cases: FA-based assay, characterization of irreversible inhibitors
hTGase 6 = target: T1, hTGase 6 (Homo sapiens, UniProt O95932)
T1 sequence (O95932 1-706): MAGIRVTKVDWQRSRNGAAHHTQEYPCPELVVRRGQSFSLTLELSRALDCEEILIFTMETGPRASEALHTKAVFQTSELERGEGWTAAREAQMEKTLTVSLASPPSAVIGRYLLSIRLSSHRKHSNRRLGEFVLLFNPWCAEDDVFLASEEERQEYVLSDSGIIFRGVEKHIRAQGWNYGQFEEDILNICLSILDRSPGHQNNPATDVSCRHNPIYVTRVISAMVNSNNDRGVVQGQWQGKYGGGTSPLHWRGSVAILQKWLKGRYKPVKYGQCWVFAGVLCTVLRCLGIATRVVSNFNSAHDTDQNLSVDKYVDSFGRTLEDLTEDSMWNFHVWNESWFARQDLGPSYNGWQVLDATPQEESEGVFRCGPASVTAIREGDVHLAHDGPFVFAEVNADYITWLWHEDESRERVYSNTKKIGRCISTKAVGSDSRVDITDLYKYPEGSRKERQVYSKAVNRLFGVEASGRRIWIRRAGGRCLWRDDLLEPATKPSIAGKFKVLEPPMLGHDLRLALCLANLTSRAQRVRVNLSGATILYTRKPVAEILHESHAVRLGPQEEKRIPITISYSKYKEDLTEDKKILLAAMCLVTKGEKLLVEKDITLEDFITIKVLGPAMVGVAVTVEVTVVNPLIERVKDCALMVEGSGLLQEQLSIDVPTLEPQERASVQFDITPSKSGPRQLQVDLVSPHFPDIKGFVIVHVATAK

hTGase 1 = target: T2, hTGase 1 (Homo sapiens, UniProt P22735)
T2 sequence (P22735 1-817): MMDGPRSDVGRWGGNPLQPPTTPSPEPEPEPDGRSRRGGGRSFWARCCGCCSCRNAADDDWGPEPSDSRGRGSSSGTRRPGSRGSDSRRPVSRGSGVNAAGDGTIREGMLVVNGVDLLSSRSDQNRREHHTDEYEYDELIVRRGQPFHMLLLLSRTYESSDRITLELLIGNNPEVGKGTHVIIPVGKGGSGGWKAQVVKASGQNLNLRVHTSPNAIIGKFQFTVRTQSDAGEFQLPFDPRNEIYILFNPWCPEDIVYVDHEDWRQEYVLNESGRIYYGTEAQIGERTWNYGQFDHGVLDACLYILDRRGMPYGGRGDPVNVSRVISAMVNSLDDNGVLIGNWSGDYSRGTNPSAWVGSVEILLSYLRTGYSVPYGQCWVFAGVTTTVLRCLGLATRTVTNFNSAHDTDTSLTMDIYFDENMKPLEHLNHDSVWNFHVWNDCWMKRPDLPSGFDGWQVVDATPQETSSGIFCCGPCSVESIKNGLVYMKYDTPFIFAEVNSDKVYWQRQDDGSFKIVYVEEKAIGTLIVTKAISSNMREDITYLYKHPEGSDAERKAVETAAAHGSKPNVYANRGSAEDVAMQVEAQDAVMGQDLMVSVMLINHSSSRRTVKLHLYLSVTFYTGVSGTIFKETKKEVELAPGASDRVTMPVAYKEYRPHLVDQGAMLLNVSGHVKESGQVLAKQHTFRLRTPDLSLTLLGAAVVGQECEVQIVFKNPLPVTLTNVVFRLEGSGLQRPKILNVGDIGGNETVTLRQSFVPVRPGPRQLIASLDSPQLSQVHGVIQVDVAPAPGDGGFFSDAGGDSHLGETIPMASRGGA

hTGase 2 = target: T3, hTGase 2 (Homo sapiens, UniProt P21980); settings: DMC 30 µM, mean (SEM)
T3 sequence (P21980 1-687): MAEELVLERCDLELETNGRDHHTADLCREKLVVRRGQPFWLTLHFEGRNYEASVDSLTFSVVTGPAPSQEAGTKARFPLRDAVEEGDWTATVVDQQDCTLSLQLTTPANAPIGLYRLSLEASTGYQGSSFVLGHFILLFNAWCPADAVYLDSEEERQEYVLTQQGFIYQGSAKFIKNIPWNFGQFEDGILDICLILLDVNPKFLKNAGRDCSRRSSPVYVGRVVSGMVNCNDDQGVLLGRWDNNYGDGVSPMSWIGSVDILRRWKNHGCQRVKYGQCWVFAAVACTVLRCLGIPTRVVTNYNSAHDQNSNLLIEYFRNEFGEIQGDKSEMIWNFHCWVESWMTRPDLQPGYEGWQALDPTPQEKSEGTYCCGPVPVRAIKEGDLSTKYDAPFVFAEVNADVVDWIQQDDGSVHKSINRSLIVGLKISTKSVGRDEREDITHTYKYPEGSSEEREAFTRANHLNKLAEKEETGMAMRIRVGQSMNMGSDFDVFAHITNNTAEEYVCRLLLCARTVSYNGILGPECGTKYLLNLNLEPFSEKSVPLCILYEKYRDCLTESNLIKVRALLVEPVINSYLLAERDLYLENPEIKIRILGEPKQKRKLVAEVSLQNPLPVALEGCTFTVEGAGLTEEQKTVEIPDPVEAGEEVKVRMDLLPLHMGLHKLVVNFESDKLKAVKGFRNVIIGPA

hFXIIIa = target: T4, hFXIIIa (Homo sapiens, UniProt P00488)
T4 sequence (P00488 39-732 limits assumed): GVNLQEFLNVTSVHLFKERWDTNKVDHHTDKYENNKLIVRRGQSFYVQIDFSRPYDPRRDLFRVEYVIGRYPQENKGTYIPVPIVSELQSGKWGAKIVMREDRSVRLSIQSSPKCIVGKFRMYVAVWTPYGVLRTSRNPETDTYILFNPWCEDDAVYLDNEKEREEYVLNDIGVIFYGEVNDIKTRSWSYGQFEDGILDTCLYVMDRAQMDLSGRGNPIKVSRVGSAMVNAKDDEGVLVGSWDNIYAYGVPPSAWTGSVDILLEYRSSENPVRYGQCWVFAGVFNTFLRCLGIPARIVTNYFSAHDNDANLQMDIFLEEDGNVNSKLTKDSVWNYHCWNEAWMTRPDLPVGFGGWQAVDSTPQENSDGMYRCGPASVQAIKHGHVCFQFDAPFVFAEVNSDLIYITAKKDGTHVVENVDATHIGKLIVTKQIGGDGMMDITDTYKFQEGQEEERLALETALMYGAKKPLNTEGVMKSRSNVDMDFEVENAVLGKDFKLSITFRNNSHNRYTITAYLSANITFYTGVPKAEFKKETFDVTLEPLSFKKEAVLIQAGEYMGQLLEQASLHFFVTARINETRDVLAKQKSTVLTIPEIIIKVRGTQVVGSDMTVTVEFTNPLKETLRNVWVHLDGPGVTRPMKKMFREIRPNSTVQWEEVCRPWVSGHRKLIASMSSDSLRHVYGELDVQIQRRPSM

[1] = IC50 hTGase 2, preincubation 30 min, R-I-Cad 0.74 µM, hTGase 2 5 µg/mL
[2] = IC50 hTGase 2, preincubation 5 min, R-I-Cad 0.81 µM, hTGase 2 2 µg/mL

| IC50 (hTGase 6) | IC50 (hTGase 1) | IC50 (hTGase 2; [1]) | IC50 (hFXIIIa) | Structure (SMILES) | IC50 (hTGase 2; [2]) |
| --- | --- | --- | --- | --- | --- |
| > 30 µM | > 30 µM | 0.04 µM | > 30 µM | C=CC(=O)NCCCC[C@H](NC(=O)Cc1ccccc1)C(=O)N1CCN(c2cccc(C)n2)CC1 [Compound 1] |  |
| 38.4 µM | 10.2 µM | 0.096 µM | 26.2 µM | C#Cc1cccc(N2CCN(C(=O)[C@H](CCCCNC(=O)C=C)NC(=O)Cc3ccccc3)CC2)n1 [Compound 3, N^α-Phenylacetyl-N^ε-acryloyl-L-lysine-4-(6-ethinylpyridin-2-yl)piperazide] | 0.441 µM |
| 19.5 µM | 8.99 µM | 0.042 µM | 17.6 µM | C=CC(=O)NCCCC[C@H](NC(=O)Cc1ccccc1)C(=O)N1CCN(c2ccc([N+](=O)[O-])nc2)CC1 [Compound 2] |  |

| Structure (SMILES) | IC50 (hTGase 6) | IC50 (hTGase 1) | IC50 (hTGase 2; [1]) | IC50 (hFXIIIa) | IC50 (hTGase 2; [2]) |
| --- | --- | --- | --- | --- | --- |
| C=CC(=O)NCCCC[C@H](NC(=O)Cc1ccccc1)C(=O)N1CCN(c2cccc(-c3cn(CCOCCOCCOCCNC(=O)CCCC[C@@H]4SC[C@@H]5NC(=O)N[C@@H]54)nn3)n2)CC1 [Compound 4, N-(2-(2-(2-(2-(4-(6-(4-(N^6-acryloyl-N^2-(2-phenylacetyl)-L-lysyl)piperazin-1-yl)pyridin-2-yl)-1H-1,2,3-triazol-1-yl)ethoxy)ethoxy)ethoxy)ethyl)-5-((3aS,4S,6aR)-2-oxohexahydro-1H-thieno[3,4-d]imidazol-4-yl)pentanamide] | 21.8 µM | 4.56 µM | 0.068 µM | 7.12 µM | 0.249 µM |

Source: publication PMC9104438, “Application of a Fluorescence Anisotropy-Based Assay to Quantify Transglutaminase 2 Activity in Cell Lysates” (International Journal of Molecular Sciences, 2022)
